In patent US10761085B2, “Method for determining a protein-protein interaction” (MEDICAL & BIOLOGICAL LABORATORIES CO., LTD., priority 2014, dated 2020):

What was measured:
[1] = molecular target: T1, FKBP12 mutant homodimer formation (Homo sapiens, UniProt P62942, F37V); assay: Fluorescent focus detection of FKBP12 mutant homodimer formation, PB1-mAG1-FKBP12 mutant transiently expressed in HEK293 cells (Example 1); type: cell-based; details: 500 nM
T1 construct: expressed in transfected cells; host or cells: HEK293
Description: Next, the pPB1-hmAG1-FKBP12 mutant prepared as described above was introduced into HEK293 cells, and the fusion protein according to the present invention was expressed in the cells. Specifically, first, HEK293 cells were cultured in DMEM (high glucose, manufactured by SIGMA ALDRICH CO.) supplemented with 10% FBS (manufactured by Equitech-Bio Inc.) and 1% penicillin-streptomycin (manufactured by Life Technologies Corporation). Then, on the day before the transfection, the HEK293 cells cultured in this manner were seeded onto an 8-well chamber slide (manufactured by Nunc A/S), and cultured in 200 μL of the culture solution per well. Subsequently, 100 ng of the pPB1-hmAG1-FKBP12 mutant was diluted with 10 μL of OptiMEM (manufactured by Life Technologies Corporation), and 0.4 μL of Turbofect Transfection Reagent (manufactured by Thermo Fisher Scientific Inc.) was added thereto and then stirred. Thereafter, the resultant was further mixed with 100 μL of the culture solution, then added to the HEK293 cells, and cultured for 20 hours.
After the transfection treatment, the HEK293 cells were observed using an IX-71 inverted fluorescence microscope (manufactured by Olympus Corporation, the magnification of the objective lens: 20×), a U-MGFPHQ filter (manufactured by Olympus Corporation), and an ORCA-ER digital camera (manufactured by Hamamatsu Photonics K. K.). […]
Target sequence in this assay (P62942 whole entry F37V): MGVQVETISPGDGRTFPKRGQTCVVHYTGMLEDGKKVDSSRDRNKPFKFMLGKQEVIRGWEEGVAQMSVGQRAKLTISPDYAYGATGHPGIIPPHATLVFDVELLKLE

[2] = molecular target: T1, FKBP12 mutant homodimer formation; assay: Comparative Example 1: method of PTL 4 (PB1-FKBP12 mutant and AG-FKBP12 mutant) for FKBP12 mutant homodimer formation in HEK293 cells; type: cell-based; details: method of PTL 4, 66 minutes after the drug addition
Description: In the detection system described in PTL 4, the PB1 domain of the p62 protein was selected as the association-inducing protein. Moreover, AG was selected as the fluorescent multimerizable protein, and a DNA encoding humanized-codon AG (hAG) was used.
Further, an expression vector (pPB1-FKBP12 mutant) encoding a fusion protein composed of the FKBP12 mutant fused to the C-terminus of the PB1 domain of the p62 protein was prepared as follows. Specifically, a DNA having the nucleotide sequence of SEQ ID NO: 31 was artificially synthesized which contained restriction enzyme sites at either end of a DNA having a nucleotide sequence encoding the FKBP12 mutant (the DNA encoding a protein having the amino acid sequence of SEQ ID NO: 32). Then, the obtained synthetic DNA was cleaved with EcoRI and XhoI, and inserted into pAsh-MCLinker (manufactured by MEDICAL & BIOLOGICAL LABORATORIES CO., LTD.) having been treated with a combination of the same restriction enzymes. Thus, a pPB1-FKBP12 mutant was constructed. […]
Further, 100 ng of each of the expression vectors thus constructed was mixed, that is, 200 ng of these were mixed in total, and fluorescent foci in cells before and after the drug addition were detected according to the same methods as <Cell Culturing and Transfection> and <Observation of Cells> described in Example 1.
Target sequence in this assay (P62942 2-108 F37V limits assumed): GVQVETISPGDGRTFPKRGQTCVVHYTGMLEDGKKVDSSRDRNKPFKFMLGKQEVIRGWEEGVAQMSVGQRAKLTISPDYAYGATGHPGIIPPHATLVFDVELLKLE

[3] = molecular target: T1, FKBP12 mutant homodimer formation; assay: Reversible FKBP12 mutant homodimer formation in HEK293 cells constitutively expressing PB1-hmAG1-FKBP12 mutant, spot detection image analysis (Example 2); type: cell-based
Description: The pPB1-hmAG1-FKBP12 mutant was introduced into HEK293 cells, and cells constitutively expressing the fusion protein according to the present invention (PB1-hmAG1-FKBP12 mutant) were prepared. Specifically, on the day before the introduction of the expression vector, HEK293 cells were seeded onto a 35-mm dish (manufactured by BD Falcon), and cultured in 1.5 mL of the culture solution. Then, 1 μg of the pPB1-hmAG1-FKBP12 mutant was diluted with 100 μL of OptiMEM (manufactured by Life Technologies Corporation), and 10 μL of PolyFect (registered trademark) Transfection Reagent (manufactured by QIAGEN N.V.) was added thereto and then stirred. […] Thereafter, G418 was added thereto at a concentration of 500 μg/mL, and further cultured for one week. After that, viable cells were detached using a trypsin solution, diluted with a culture solution containing G418 (500 μg/ml), and then cultured in a 96-well plate at 0.5 cells/well. […]
The images captured over time by the above method were analyzed using spot detection (spot detector) of an icy image analysis program (icy.bioimageanalysis.org/). Moreover, from the images, a graph was created in which the X axis represents the operation time (minutes), and the Y axis represents a numerical value of a total fluorescence intensity in regions of the fluorescent foci within boxes drawn around the regions by lines.
Target sequence in this assay (P62942 whole entry F37V): as the sequence (P62942 whole entry F37V) above

[4] = molecular target: T1, FKBP12 mutant homodimer formation; assay: FKBP12 mutant homodimer formation with DG1 or mCherry as fluorescent protein, HEK293 cells (Example 8); type: cell-based; details: 500 nM, 1, 2 and 3 hours, room temperature; PB1-DG1-FKBP12 mutant and PB1-mCherry-FKBP12 mutant
From the text: To express the PB1-hDG1-FKBP12 mutant or the PB1-mCherry-FKBP12 mutant in cells, the vectors encoding these fusion proteins were introduced into HEK293 cells by the same method as that described in Example 4.
After the transfection treatment, the HEK293 cells were observed using an IX-81 inverted microscope and an ORCA-Flash 4.0 digital camera. A U-MNIBA3 filter (manufactured by Olympus Corporation) and a U-MWIG3 filter (manufactured by Olympus Corporation) were used respectively for the DG1 and mCherry observations. The homodimer formation of the FKBP12 mutant was induced by adding 500 nM B/B Homodimerizer. After the drug addition, the resultant was left standing at room temperature. The cells were observed after 1, 2, and 3 hours elapsed. FIGS. 22 and 23 show images before the drug addition and 1, 2, and 3 hours after the addition.
Target sequence in this assay (P62942 2-108 F37V limits assumed): as the sequence (P62942 2-108 F37V limits assumed) above

[5] = molecular target: T1, FKBP12 mutant homodimer formation; assay: FKBP12 mutant homodimer formation with SAM domain of Tankyrase 1 as multimerizable protein, HEK293 cells (Example 9); type: cell-based; details: 500 nM, 3 hours, room temperature; Tankyrase-mAG1-FKBP12 mutant
Description: HEK293 cells were cultured in DMEM (high glucose) supplemented with 10% FBS and 1% penicillin-streptomycin. Then, on the day before the transfection, the cells were seeded onto an 8-well chamber slide. The cells were cultured in 200 μL of the culture solution per well. Subsequently, a DNA solution was prepared by mixing 200 ng of the plasmid with 10 μL of OptiMEM, and 0.8 μl of Fugene HD (manufactured by Promega Corporation) was added thereto and then stirred. The resultant was further mixed with 100 μl of the culture solution, then added to the HEK293 cells, and cultured for 20 hours.
After the transfection treatment, the HEK293 cells were observed using an IX-81 inverted microscope and an ORCA-Flash 4.0 digital camera. A U-MNIBA3 filter was used for the observation. The homodimer formation of the FKBP12 mutant was induced by adding 500 nM B/B Homodimerizer to the medium. In addition, after the drug was added, the resultant was left standing at room temperature. The cells were observed after 3 hours elapsed.
Target sequence in this assay (P62942 2-108 F37V limits assumed): as above

[6] = tested on: homodimer formation of ERK2; assay: Fluorescent focus detection of ERK2 homodimer formation after EGF, serum-starved HEK293 cells (Example 11); type: cell-based
Description: HEK293 cells were selected as cells into which the expression vectors prepared above were introduced. The cells were first cultured in DMEM (high glucose) supplemented with 10% FBS (manufactured by Equitech-Bio Inc.) and 1% penicillin-streptomycin. Then, on the day before the introduction of the expression vectors, these cells were seeded onto a 35-mm dish, and cultured in 1.5 ml of the culture solution. […] Thereafter, each solution of the expression vectors was added to the cultured cells. The pERK2-hmAG1PB1 transfected cells were observed 20 hours after the vector introduction. To the pERK2-PB1-hmAG1 transfected cells, G418 was added at a concentration of 500 μg/mL, and further cultured for one week. After that, viable cells were detached using a trypsin solution, diluted with a culture solution containing G418 (500 μg/ml), and then cultured in a 96-well plate at 0.5 cells/well. Subsequently, cells which formed single colonies were cultured to expand.
Then, the cells were observed using an IX-71 inverted fluorescence microscope (the magnification of the objective lens: 20×), a U-MGFPHQ filter, and an ORCA-ER digital camera. The homodimer formation of ERK2 was induced by adding EGF (epidermal growth factor, manufactured by Sigma-Aldrich Co.) to the buffer to the final concentration of 50 ng/ml. FIGS. 26 and 27 show images before the EGF addition and 8 minutes after the addition.

[7] = tested on: calmodulin and M13 peptide tetramer formation (H1 receptor, calcium ion); details: 100 μM
Description: To express the fusion proteins in a combination of the following (A) or (B), the plasmid vectors prepared above were introduced into HeLaS3 cells by a method described below: • (A) Calumodulin-mAG1 and M13peptide-PB1; and • (B) Calumodulin-mUkG1 and M13peptide-PB1.
First, HeLaS3 cells were cultured in DMEM (low glucose) containing 10% FBS (manufactured by Equitech-Bio Inc.). Then, on the day before the transfection, the HeLaS3 cells were seeded onto a 35-mm glass base dish (manufactured by Asahi Glass Co., Ltd.). Subsequently, at the time of the transfection, the plasmids (1 μg+1 μg) were diluted with OptiMEM, and 10 μl of PolyFect(registered trademark) Transfection Reagent was added thereto and stirred. The resultant was further mixed with 600 μl of the culture solution, thereafter added to the HeLaS3 cells, and cultured for 22 hours.
Then, 100 μM histamine (manufactured by Wako Pure Chemical Industries, Ltd.) was added thereto, and fluorescence images were captured over time.

[8] = tested on: homodimer formation of STAT3; assay: Fluorescent focus detection of STAT3 homodimer formation after IL-6, HEK293 cells constitutively expressing PB1-mAG1-STAT3 (Example 12); type: cell-based; details: 100 ng/ml, 50 minutes; none before addition
Description: HEK293 cells were selected as cells into which the expression vector prepared above was introduced. The cells were first cultured in DMEM (high glucose) supplemented with 10% FBS and 1% penicillin-streptomycin. Then, on the day before the introduction of the expression vector, these cells were seeded onto a 35-mm dish, and cultured in 1.5 ml of the culture solution. […] Thereafter, the mixture solution of the expression vector was added to the cultured cells. After that, G418 was added thereto at a concentration of 500 μg/mL, and further cultured for one week. Next, viable cells were detached using a trypsin solution, diluted with a culture solution containing G418 (500 μg/ml), and then cultured in a 96-well plate at 0.5 cells/well. Subsequently, cells which formed single colonies were cultured to expand.
Then, the cells were observed using an IX-71 inverted fluorescence microscope (the magnification of the objective lens: 20×), a U-MGFPHQ filter, and an ORCA-ER digital camera. The homodimer formation of STAT3 was induced by adding Human Recombinant IL-6 (manufactured by R&D SYSTEMS, INC.) to the buffer to the final concentration of 100 ng/ml.

Which fluorescent focus formation ([1]; 38 minutes after the drug addition, none before addition) does the source give for CC[C@H](C(=O)N1CCCC[C@H]1C(=O)O[C@H](CCc1ccc(OC)c(OC)c1)c1cccc(OCC(=O)NCC(CNC(=O)COc2cccc([C@@H](CCc3ccc(OC)c(OC)c3)OC(=O)[C@@H]3CCCCN3C(=O)[C@@H](CC)c3cc(OC)c(OC)c(OC)c3)c2)CN(C)C)c1)c1cc(OC)c(OC)c(OC)c1 [B/B Homodimerizer] here?
The fluorescent focus formation was “fluorescent foci were observed in multiple cells”.

What about the fluorescent focus formation ([1]; 76 minutes after the addition) of the same compound?
The fluorescent focus formation was “many cells which exhibited distinctive fluorescent foci were observed”.

And the fluorescent focus formation [2]?
Its fluorescent focus formation is “fluorescent foci were formed only in a few cells”.

And the fluorescent focus formation ([3]; 500 nM, 90 minutes after the B/B Homodimerizer addition)?
Its fluorescent focus formation is “distinctive fluorescent foci were observed in multiple cells”.

And the “fluorescence intensity relative to that before the addition” value ([3]; when formation of fluorescent foci started to be observed immediately after the B/B Homodimerizer addition)?
The value was 1.9 times.

What about the fluorescent focus formation [4] of the same compound?
The fluorescent focus formation was “drug-addition dependent increases in fluorescent foci were observed”.

What about the fluorescent focus formation [5] of the same compound?
The fluorescent focus formation was “fluorescent focus formations attributable to the addition of the drug”.

With “EGF: epidermal growth factor, manufactured by Sigma-Aldrich Co. (NSDSECPLSHDGYCLHDGVCMYIEALDKYACNCVVGYIGERCQYRDLKWWELR; UniProt P01133 971-1023, looked up)” as the compound, how does the fluorescent focus formation ([6]; 50 ng/ml, 8 minutes, ERK2-mAG1-PB1 transient, none before addition) read?
Its fluorescent focus formation is “fluorescent foci were observed in multiple cells”.

What about the fluorescent focus formation ([6]; 8 minutes after EGF addition, cells constitutively expressing ERK2-PB1-hmAG1 (FIG. 27)) of the same compound?
The fluorescent focus formation was “fluorescent foci indicating the homodimer formation of ERK2 were detected”.

NCCc1c[nH]cn1 [histamine] was tested. Which fluorescent focus formation ([7]; 60 seconds after the ligand was added, Calmodulin-mAG1 or Calmodulin-mUkG1 with M13peptide-PB1) did it give?
The fluorescent focus formation was “fluorescent focus formation was detected”.

What about the “extinction of fluorescent foci” value ([7]; 300 seconds after the ligand addition (FIG. 35)) of the same compound?
Its value is “the fluorescent foci (assemblies) were extinguished”.

For “IL-6: Human Recombinant IL-6, manufactured by R&D SYSTEMS, INC.”, which fluorescent focus formation [8] is on record?
Its fluorescent focus formation is “fluorescent foci were observed in multiple cells”.
